Assay results as given in patent US11292781B2, “Pyrimidine tricyclic enone derivatives for inhibition of ROR-gamma and other uses” (REATA PHARMACEUTICALS, INC., priority 2016, dated 2022).
Like-named read-outs stand apart in the source and are kept apart here.

Key:
[1] = system: IL-17A levels in primary human CD4+ T cells differentiated into Th17 cells; assay: IL-17 release from differentiated primary human T-cells (IL-17A HTRF); format: cell-based
Method: C. IL-17 Release from Differentiated Primary Human T-Cells and Cell Viability Primary human cryopreserved CD4+ T Cells (Lonza, donor #0000402103) were plated in Lymphocyte Growth Medium-3 (LGM-3, Lonza) according to the manufacturer's recommendations, and allowed to recover for approximately 3 hours at 37° C. with 5% CO2 in a humidified atmosphere. […] Triplicate wells were plated for each test condition. DMSO (final concentration ≤0.1%) was used as the vehicle. Immediately after plating, CD4+ T cells were activated by adding Dynabeads Human T-Activator CD3/CD28 (Life Technologies; bead-to-cell ratio of 1:2.5) and differentiated into Th17 cells by adding a mixture of the following cytokines: transforming growth factor-β (TGF-β, 5 ng/mL), IL-6 (20 ng/mL), IL-23 (20 ng/mL), and […] (10 ng/mL). Undifferentiated control cells received only cytokine IL-2 (50 ng/mL). All human recombinant cytokines were purchased from R&D Systems. Following a 46-hour incubation at 37° C. with 5% CO2 in a humidified atmosphere, the plates were centrifuged for 3 minutes at 250×g, and half of the supernatant was transferred to a new plate to be used in the IL-17A assay (see below). Cell viability was assessed in the original plate using the CyQuant Direct Assay (Life Technologies). CyQuant values from test compound samples were normalized to those from DMSO-treated samples. The concentration of IL-17A in the supernatant was measured using the Homogeneous Time-Resolved Fluorescence (HTRF) assay (Cisbio Bioassays) according to the manufacturer's protocol. The assay was performed at room temperature in low volume, solid white 384-well plates (Greiner Bio-One). […] A non-linear regression analysis with log (inhibitor) vs. normalized response using a variable slope was applied to fit the data and determine the IC50 values for inhibition of IL-17A levels and cell viability.

[2] = system: Nrf2 transcription factor (GST ARE luciferase reporter in AREc32 cells); assay: AREc32 luciferase reporter assay; format: cell-based, human; settings: EC2×: concentration required to increase GST ARE luciferase reporter activity by 2-fold, 19 hours
From the text: A. AREc32 Luciferase Reporter Assay The AREc32 luciferase reporter assay allows for quantitative assessment of the endogenous activity of the Nrf2 transcription factor in cultured mammalian cells. AREc32 cells are derived from MCF-7 human breast carcinoma cells that were stably transfected with a reporter construct that contains the firefly luciferase gene located downstream of eight copies of the rat GSTA2 antioxidant response element (ARE) sequence (Wang et al., 2006; CXR Biosciences). Active NRF2 binds to the ARE sequences and increases expression of the firefly luciferase gene. […] Luciferase activity was determined using the ONE-Glo Luciferase assay (Promega). The luminescence signal was measured on a BMG Pherastar microplate reader. The mean luminescence value from test compound-treated wells was normalized to that from DMSO-treated wells and was represented as fold-induction. Data were analyzed using GraphPad Prism version 6.00 for Windows, GraphPad Software, La Jolla Calif. USA. A non-linear regression curve with log (agonist) vs. response using a variable slope was used to fit the data. […] EC2× values were interpolated from the curve.

[3] = primary human CD4+ T cells, Th17 differentiation, 46-hour incubation, read-out: hIL17 IC50

Row | Structure (SMILES) | IC50 [1, 3] | HRF2 ARE 2× [2] | IC50 ([1]; Homo sapiens, CD4+ T, 46 h, read-out: hIL17 IC50 (nM))
1 | Cc1cc(-c2nc(-c3ccccc3F)c3c(n2)[C@]2(C)C=C(C#N)C(=O)[C@H](C)[C@H]2CC3)c2cc(F)ccc2n1 [T85] | 38 nM | 307 nM | –
2 | C[C@H]1C(=O)C(C#N)=C[C@@]2(C)c3nc(-c4cccc5cnccc45)nc(-c4ccccc4F)c3CC[C@H]12 [T86] | 33 nM | 276 nM | –
3 | Cc1noc(C)c1-c1nc(-c2ccccc2F)c2c(n1)[C@]1(C)C=C(C#N)C(=O)[C@H](C)[C@H]1CC2 [T87] | 109 nM | 245 nM | –
4 | C[C@H]1C(=O)C(C#N)=C[C@@]2(C)c3nc(-c4ccnc5ccc(F)cc45)nc(-c4ccccc4F)c3CC[C@H]12 [T89] | 62 nM | 274 nM | –
5 | C[C@H]1C(=O)C(C#N)=C[C@@]2(C)c3nc(-c4ccnc5c(F)cc(F)cc45)nc(-c4ccccc4F)c3CC[C@H]12 [T90] | 37 nM | 301 nM | –
6 | C[C@H]1C(=O)C(C#N)=C[C@@]2(C)c3nc(-c4ccnc5ccccc45)nc(C4CC4)c3CC[C@H]12 [T93] | 101 nM | 283 nM | –
7 | C[C@H]1C(=O)C(C#N)=C[C@@]2(C)c3nc(-c4ccnc5ccccc45)nc(OC4CCC4)c3CC[C@H]12 [T94] | 58 nM | 321 nM | –
8 | C[C@H]1C(=O)C(C#N)=C[C@@]2(C)c3nc(-c4ccnc5ccccc45)nc(OCC4CCC4)c3CC[C@H]12 [T95] | – | 430 nM | 68 nM
9 | C[C@H]1C(=O)C(C#N)=C[C@@]2(C)c3nc(-c4ccnc5ccccc45)nc(OC4CCCCC4)c3CC[C@H]12 [T96] | 58 nM | 492 nM | –
10 | C[C@H]1C(=O)C(C#N)=C[C@@]2(C)c3nc(-c4ccnc5ccccc45)nc(OC4CCCC4)c3CC[C@H]12 [T97] | 35 nM | 330 nM | –
11 | C[C@H]1C(=O)C(C#N)=C[C@@]2(C)c3nc(-c4ccnc5ccccc45)nc(N(C)C)c3CC[C@H]12 [T99] | 189 nM | 508 nM | –
12 | Cc1noc(C)c1-c1nc(-c2ccnc3ccccc23)nc2c1CC[C@@H]1[C@@H](C)C(=O)C(C#N)=C[C@@]21C [T100] | 178 nM | 865 nM | –
13 | C[C@H]1C(=O)C(C#N)=C[C@@]2(C)c3nc(-c4ccnc5ccccc45)nc(-c4ccc(C(=O)N(C)Cc5ccccc5)cc4)c3CC[C@H]12 [T101] | 200 nM | 295 nM | –
14 | C[C@H]1C(=O)C(C#N)=C[C@@]2(C)c3nc(-c4ccnc5ccccc45)nc(-c4ccco4)c3CC[C@H]12 [T102] | 153 nM | 287 nM | –
15 | C[C@H]1C(=O)C(C#N)=C[C@@]2(C)c3nc(-c4ccnc5ccccc45)nc(-c4cc5ccccc5o4)c3CC[C@H]12 [T103] | 38 nM | 277 nM | –
16 | Cc1ccc(-c2nc(-c3ccnc4ccccc34)nc3c2CC[C@@H]2[C@@H](C)C(=O)C(C#N)=C[C@@]32C)o1 [T104] | 86 nM | 293 nM | –
17 | Cc1noc(-c2nc(-c3ccnc4ccccc34)nc3c2CC[C@@H]2[C@@H](C)C(=O)C(C#N)=C[C@@]32C)n1 [T105] | 65 nM | 292 nM | –
18 | Cc1nc(-c2nc(-c3ccnc4ccccc34)nc3c2CC[C@@H]2[C@@H](C)C(=O)C(C#N)=C[C@@]32C)no1 [T106] | 173 nM | 139 nM | –
19 | C[C@H]1C(=O)C(C#N)=C[C@@]2(C)c3nc(-c4ccnc5ccccc45)nc(-c4nccs4)c3CC[C@H]12 [T107] | 170 nM | 284 nM | –
20 | Cc1cc(-c2nc(-c3cccc(F)c3)c3c(n2)[C@]2(C)C=C(C#N)C(=O)[C@H](C)[C@H]2CC3)c2ccccc2n1 [T108] | 21 nM | 225 nM | –
21 | Cc1cc(-c2nc(-c3ccc(F)cc3)c3c(n2)[C@]2(C)C=C(C#N)C(=O)[C@H](C)[C@H]2CC3)c2ccccc2n1 [T109] | 18 nM | 251 nM | –
22 | Cc1cc(-c2nc(OC3CCC3)c3c(n2)[C@]2(C)C=C(C#N)C(=O)[C@H](C)[C@H]2CC3)c2ccccc2n1 [T110] | 37 nM | 317 nM | –

Row | Structure (SMILES) | IC50 [1, 3] | HRF2 ARE 2× [2] | IC50 ([1]; Homo sapiens, CD4+ T, 46 h, read-out: hIL17 IC50 (nM))
23 | Cc1cc(-c2nc(OC3CCCC3)c3c(n2)[C@]2(C)C=C(C#N)C(=O)[C@H](C)[C@H]2CC3)c2ccccc2n1 [T111] | 19 nM | 317 nM | –
24 | C[C@H]1C(=O)C(C#N)=C[C@@]2(C)c3nc(-c4ncnc5ccccc45)nc(OC4CCC4)c3CC[C@H]12 [T112] | 85 nM | 559 nM | –
25 | C[C@H]1C(=O)C(C#N)=C[C@@]2(C)c3nc(-c4ncnc5ccccc45)nc(-c4cccc(F)c4)c3CC[C@H]12 [T113] | 48 nM | 734 nM | –
26 | C[C@H]1C(=O)C(C#N)=C[C@@]2(C)c3nc(-c4ncnc5ccccc45)nc(-c4ccc(F)cc4)c3CC[C@H]12 [T114] | 46 nM | 484 nM | –
27 | C[C@H]1C(=O)C(C#N)=C[C@@]2(C)c3nc(-c4cc(CF)nc5ccccc45)nc(-c4ccccc4F)c3CC[C@H]12 [T115] | 14 nM | 260 nM | –
28 | C[C@H]1C(=O)C(C#N)=C[C@@]2(C)c3nc(-c4cc(C=O)nc5ccccc45)nc(-c4ccccc4F)c3CC[C@H]12 [T116] | 65 nM | 303 nM | –
29 | CC(=O)OCc1cc(-c2nc(-c3ccccc3F)c3c(n2)[C@]2(C)C=C(C#N)C(=O)[C@H](C)[C@H]2CC3)c2ccccc2n1 [T117] | 58 nM | 232 nM | –
30 | Cc1cc(-c2nc(-c3ccccc3F)c3c(n2)[C@]2(C)C=C(C#N)C(=O)C(C)(C)[C@H]2CC3)c2ccccc2n1 [T119] | 37 nM | 351 nM | –
31 | C[C@H]1C(=O)C(C#N)=C[C@@]2(C)c3nc(-c4cc(CF)nc5ccccc45)nc(OC4CCCC4)c3CC[C@H]12 [T120] | 29 nM | 334 nM | –
32 | C[C@H]1C(=O)C(C#N)=C[C@@]2(C)c3nc(-c4ccnc5c(F)cccc45)nc(OC4CCCC4)c3CC[C@H]12 [T121] | 36 nM | 390 nM | –
33 | CC1(C)C(=O)C(C#N)=C[C@@]2(C)c3nc(-c4cc(CF)nc5ccccc45)nc(-c4ccccc4F)c3CC[C@H]12 [T122] | 31 nM | 402 nM | –
34 | CC(C)c1cc(-c2nc(-c3ccccc3F)c3c(n2)[C@]2(C)C=C(C#N)C(=O)[C@H](C)[C@H]2CC3)c2ccccc2n1 [T123] | 20 nM | 371 nM | –
35 | CCC[C@@]1(C)C(=O)C(C#N)=C[C@@]2(C)c3nc(-c4ccnc5ccccc45)nc(-c4ccccc4F)c3CC[C@H]12 [T124] | 22 nM | 220 nM | –
36 | CC1(C)C(=O)C(C#N)=C[C@@]2(C)c3nc(-c4ccnc(C5CC5)c4)nc(-c4ccccc4F)c3CC[C@H]12 [T125] | 27 nM | 549 nM | –
37 | CC[C@@]1(C)C(=O)C(C#N)=C[C@@]2(C)c3nc(-c4ccnc5ccccc45)nc(-c4ccccc4F)c3CC[C@H]12 [T126] | 36 nM | 280 nM | –
38 | CC1(C)C(=O)C(C#N)=C[C@@]2(C)c3nc(-c4ccnc5c(F)cccc45)nc(-c4ccccc4F)c3CC[C@H]12 [T127] | 36 nM | 343 nM | –
39 | C[C@H]1C(=O)[C@@]2(C#N)O[C@H]2[C@@]2(C)c3nc(-c4ccnc5ccccc45)nc(-c4ccccc4F)c3CC[C@H]12 [T132] | 74 nM | 437 nM | –
40 | C[C@]1(CCCO)C(=O)C(C#N)=C[C@@]2(C)c3nc(-c4ccnc(C5CC5)c4)nc(-c4ccccc4F)c3CC[C@H]12 [T136] | 25 nM | 518 nM | –
41 | CCC[C@@]1(C)C(=O)C(C#N)=C[C@@]2(C)c3nc(-c4ccnc(C5CC5)c4)nc(-c4ccccc4F)c3CC[C@H]12 [T137] | 9 nM | 274 nM | –
42 | C[C@H]1C(=O)C(C#N)=C[C@@]2(C)c3nc(-c4ccnc5ccccc45)nc(N4CCCC4)c3CC[C@H]12 [T138] | 167 nM | 641 nM | –
43 | C[C@H]1C(=O)C(C#N)=C[C@@]2(C)c3nc(-c4ccc(C5CC5)nc4)nc(-c4ccccc4F)c3CC[C@H]12 [T140] | 26 nM | 451 nM | –
